Measurements from US8362000B2, “Azetidinyl diamides as monoacylglycerol lipase inhibitors” (Janssen Pharmaceutica NV, priority 2009, dated 2013).
Numbering of substitutions follows the chain as printed. Like-named read-outs stand apart in the source and are kept apart here.

How the values were obtained:
[1] = molecular target: T1, MGL (Rattus norvegicus, UniProt Q8R431); test: 2-AG accumulation assay in rat brain homogenate; assay type: biochemical; details: rat brain homogenate, 2-AG accumulation as percent of vehicle; for 2-AG accumulation, % of vehicle control at 10 µM: compound 10 μM, read-out: Rat Brain 2AG % VehCntrl (%) @ 10 μM; for 2-AG accumulation, % of vehicle control at 1 µM: compound 1 μM, read-out: Rat Brain 2AG % VehCntrl (%) @ 1 μM
T1 construct: one g rat brain was homogenized using a Polytron homogenizer; from tissue; host or cells: rat brain homogenate
T1 sequence (Q8R431 1-303): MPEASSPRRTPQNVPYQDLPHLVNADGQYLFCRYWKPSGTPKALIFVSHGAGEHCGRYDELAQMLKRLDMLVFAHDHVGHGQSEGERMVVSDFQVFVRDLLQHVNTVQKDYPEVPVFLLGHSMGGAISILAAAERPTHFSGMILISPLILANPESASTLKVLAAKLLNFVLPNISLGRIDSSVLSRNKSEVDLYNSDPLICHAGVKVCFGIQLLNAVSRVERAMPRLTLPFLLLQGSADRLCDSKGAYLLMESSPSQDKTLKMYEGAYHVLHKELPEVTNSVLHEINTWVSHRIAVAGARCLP

[2] = molecular target: T2, purified wild type MGL (wt-MGLL 6H-11-313) (Homo sapiens, UniProt Q99685)
T2 sequence (Q99685 1-303): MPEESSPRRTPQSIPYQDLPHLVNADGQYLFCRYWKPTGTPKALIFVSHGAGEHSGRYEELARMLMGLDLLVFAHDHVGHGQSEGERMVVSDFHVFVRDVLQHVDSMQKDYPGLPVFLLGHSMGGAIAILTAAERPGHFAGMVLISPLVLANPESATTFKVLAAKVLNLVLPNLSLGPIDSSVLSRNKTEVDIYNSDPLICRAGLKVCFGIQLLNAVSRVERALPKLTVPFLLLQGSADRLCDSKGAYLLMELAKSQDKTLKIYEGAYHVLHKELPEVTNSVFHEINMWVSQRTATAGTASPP

[3] = molecular target: T3, mutant MGL (Homo sapiens, UniProt Q99685, L169S/L176S); test: MGL ThermoFluor assay - mutant; assay type: binding
T3 sequence (Q99685 1-303 L169S/L176S): T2 sequence (Q99685 1-303) with L169S, L176S

[4] = ThermoFluor concentration-response, read-out: MGL mutant ThermoFluor Kd
[5] = ThermoFluor thermal stability binding assay, read-out: MGL mutant ThermoFluor Kd
[6] = ThermoFluor, compound concentration measured by qNMR, read-out: MGL mutant ThermoFluor qKd (μM) (using qNMR conc.)

| 2-AG accumulation, % of vehicle control at 1 µM [1] [%] | Kd [3, 4] [µM] | Kd [3, 5] [µM] | SMILES | also measured |
| --- | --- | --- | --- | --- |
| 119 | 0.044 |  | O=C(c1cscn1)N1CC(N2CCN(C(=O)c3cc4cc(C(F)(F)F)ccc4s3)C(c3ccccc3)C2)C1 (stereo not drawn) [Cpd 905, 2-Phenyl-4-[1-(1,3-thiazol-4-ylcarbonyl)azetidin-3-yl]-1-{[5-(trifluoromethyl)-1-benzothiophen-2-yl]carbonyl}piperazine] |  |
| 217 |  | 0.093 | O=C(c1cscn1)N1CCN(C2CN(C(=O)c3cc4cc(C(F)(F)F)ccc4s3)C2)CC1 [Cpd 908] |  |
| 301 |  | 0.02 | O=C(c1cscn1)N1CCN(C2CN(C(=O)c3sc4cc(F)ccc4c3Cl)C2)CC1 [Cpd 929] |  |
| 514 | 0.081 |  | O=C(c1ccc(CSc2cccc(Cl)c2)cc1)N1CC(N2CCN(C(=O)c3cscn3)CC2)C1 [Cpd 956] |  |
| 896 |  | 0.036 | O=C(c1ccc(OCc2cccc(Cl)c2)cc1)N1CC(N2CCN(C(=O)c3cscn3)CC2)C1 [Cpd 960] |  |
| 515 | 0.069 |  | O=C(c1ccc(CNc2cccc(Cl)c2)cc1)N1CC(N2CCN(C(=O)c3cscn3)CC2)C1 [Cpd 969] |  |
| 626 | 0.005 |  | O=C(c1ccc(C(F)(F)c2ccccc2)cc1)N1CC(N2CCN(C(=O)c3nccs3)CC2)C1 [Cpd 986, 1-[1-({4-[Difluoro(phenyl)methyl]phenyl}carbonyl)azetidin-3-yl]-4-(1,3-thiazol-2-ylcarbonyl)piperazine] |  |
| 604 |  | 0.083 | Cc1nc(-c2cccc(Cl)c2)sc1C(=O)N1CC(N2CCN(C(=O)c3cscn3)CC2)C1 [Cpd 1381] |  |
|  | 0.197 |  | O=C(c1ccc2oc(-c3ccccc3)nc2c1)N1CC(N2CCN(C(=O)c3cscn3)CC2)C1 [Cpd 1382, 2-Phenyl-5-({3-[4-(1,3-thiazol-4-ylcarbonyl)piperazin-1-yl]azetidin-1-yl}carbonyl)-1,3-benzoxazole] | 2-AG accumulation, % of vehicle control at 10 µM [1]: 293% |
| 313 |  | 0.061 | Cc1nc(-c2ccc(Cl)cc2)sc1C(=O)N1CC(N2CCN(C(=O)c3cscn3)CC2)C1 [Cpd 1384] |  |
| 169 | 0.029 |  | Cc1cc(C(=O)N2CC(N3CCN(C(=O)c4cscn4)CC3)C2)ccc1-c1ccccc1 [Cpd 1406] |  |

Second part, the molecule before the results:

| SMILES | 2-AG accumulation, % of vehicle control at 1 µM [1] [%] | Kd [3, 4] [µM] | Kd [3, 5] [µM] | also measured |
| --- | --- | --- | --- | --- |
| O=C(c1nccs1)N1CC(N2CCN(C(=O)c3ccc(-c4ccccc4)cc3)C(c3ccccc3)C2)C1 (stereo not drawn) [Cpd 43, 1-(Biphenyl-4-ylcarbonyl)-2-phenyl-4-[1-(1,3-thiazol-2-ylcarbonyl)azetidin-3-yl]piperazine] |  |  |  | 2-AG accumulation, % of vehicle control at 10 µM [1]: 215%; IC50 [2]: 1260 nM |
| O=C(c1ccccc1)N1CCN(C2CN(C(=O)c3ccc(-c4ccccc4C(F)(F)F)cc3)C2)CC1 [Cpd 72, 1-(Phenylcarbonyl)-4-(1-{[2′-(trifluoromethyl)biphenyl-4-yl]carbonyl}azetidin-3-yl)piperazine] |  |  |  | 2-AG accumulation, % of vehicle control at 10 µM [1]: 334%; IC50 [2]: 326 nM |
| Cc1nc(-c2ccccc2)sc1C(=O)N1CC(N2CCN(C(=O)c3nccs3)CC2)C1 [Cpd 133, 1-{1-[(4-Methyl-2-phenyl-1,3-thiazol-5-yl)-carbonyl]azetidin-3-3yl}-4-(1,3-thiazol-2-ylcarbonyl)piperazine] |  |  |  | 2-AG accumulation, % of vehicle control at 10 µM [1]: 623%; IC50 [2]: 67.3 nM |
| O=C(c1cccc(-c2ccccc2C(F)(F)F)c1)N1CC(N2CCN(C(=O)c3nccs3)CC2)C1 [Cpd 148, 1-(1,3-Thiazol-2-ylcarbonyl)-4-(1-{[2′-(trifluoromethyl)biphenyl-3-yl]carbonyl}azetidin-3-yl)piperazine] |  |  |  | 2-AG accumulation, % of vehicle control at 10 µM [1]: 744%; IC50 [2]: < 5 nM |
| O=C(c1ccc(-c2ccc(Cl)c(Cl)c2)cc1)N1CC(N2CCN(C(=O)c3nccs3)CC2)C1 [Cpd 175, 1-{1-[(3′,4′-Dichlorobiphenyl-4-yl)carbonyl]azetidin-3-yl}-4-(1,3-thiazol-2-ylcarbonyl)piperazine] | 706 |  |  | 2-AG accumulation, % of vehicle control at 0.1 µM ([1]; compound 0.1 μM, read-out: Rat Brain 2AG % VehCntrl (%) @ 0.1 μM): 330%; IC50 [2]: < 5 nM |
| O=C(c1ccccc1)N1CCN(C2CN(C(=O)c3ccc(-c4ccccc4OC(F)(F)F)cc3)C2)CC1 [Cpd 196, 1-(Phenylcarbonyl)-4-(1-{[2′-(trifluoromethoxy)biphenyl-4-yl]carbonyl}azetidin-3-yl)piperazine] |  |  |  | 2-AG accumulation, % of vehicle control at 10 µM [1]: 516%; IC50 [2]: 216 nM |
| CS(=O)(=O)c1cccc(-c2ccc(C(=O)N3CC(N4CCN(C(=O)c5nccs5)CC4)C3)cc2)c1 [Cpd 208, 1-(1-{[3′-(Methylsulfonyl)biphenyl-4-yl]carbonyl}azetidin-3-yl)-4-(1,3-thiazol-2-ylcarbonyl)piperazine] | 480 |  |  | 2-AG accumulation, % of vehicle control at 10 µM [1]: 324%; IC50 [2]: 92 nM |
| O=C(c1ccc(-c2ccc(Cl)c(C(F)(F)F)c2)cc1)N1CC(N2CCN(C(=O)c3nccs3)CC2)C1 [Cpd 212, 1-(1-{[4′-Chloro-3′-(trifluoromethyl)biphenyl-4-yl]carbonyl}azetidin-3-yl)-4-(1,3-thiazol-2-ylcarbonyl)piperazine] |  |  |  | 2-AG accumulation, % of vehicle control at 10 µM [1]: 831%; IC50 [2]: < 5 nM |
| COc1cc(C(=O)N2CC(N3CCN(C(=O)c4ccccc4)CC3)C2)ccc1-c1ccccc1 [Cpd 615] | 123 | 0.097 |  |  |
| O=C(/C=C/c1ccc(SC(F)(F)F)cc1)N1CC(N2CCN(C(=O)c3cscn3)CC2)C1 [Cpd 648] | 126 | 0.146 |  |  |
| CC(C)(C)OC(=O)N1CCC(c2ccc(C(=O)N3CC(N4CCN(C(=O)c5cscn5)CC4)C3)cc2)CC1 [Cpd 903] | 908 |  | 0.078 |  |
| COc1cncc(Oc2ccc(C(=O)N3CC(N4CCN(C(=O)c5nccs5)CC4)C3)cc2)c1 [Cpd 904] | 392 | 0.633 |  |  |
| O=C(c1ccc(Oc2ccccn2)c(F)c1)N1CC(N2CCN(C(=O)c3nccs3)CC2)C1 [Cpd 909] | 144 | 0.325 |  |  |
| O=C(c1nccs1)N1CCN(C2CN(C(=O)c3sc4cc(F)ccc4c3Cl)C2)CC1 [Cpd 930] | 807 |  | 0.005 |  |
| Cc1nc(COc2ccc(Cl)cc2)sc1C(=O)N1CC(N2CCN(C(=O)c3nccs3)CC2)C1 [Cpd 965] | 591 | 0.035 |  |  |
| O=C(c1ccc(OCc2cccc(Br)n2)cc1)N1CC(N2CCN(C(=O)c3nccs3)CC2)C1 [Cpd 983] | 194 |  | 0.019 |  |
| O=C(c1ccc(OCc2cccc(Br)n2)cc1)N1CC(N2CCN(C(=O)c3cscn3)CC2)C1 [Cpd 987] | 320 |  | 0.327 |  |
| O=C(c1ccc2c(cnn2-c2cccc(F)c2)c1)N1CC(N2CCN(C(=O)c3nccs3)CC2)C1 [Cpd 1110] | 807 |  |  | Kd [3, 6]: 0.01 µM |
| N#Cc1cccc(-n2ccc3cc(C(=O)N4CC(N5CCN(C(=O)c6nccs6)CC5)C4)ccc32)c1 [Cpd 1113] | 819 |  |  | Kd [3, 6]: 0.01 µM |
| O=C(c1ccc2nc(-c3cccc(F)c3)sc2c1)N1CC(N2CCN(C(=O)c3nccs3)CC2)C1 [Cpd 1131] | 563 |  | 0.016 |  |
| O=C(c1ccc2c(ccn2-c2ncc(F)cn2)c1)N1CC(N2CCN(C(=O)c3nccs3)CC2)C1 [Cpd 1147, 1-(5-Fluoropyrimidin-2-yl)-5-({3-[4-(1,3-thiazol-2-ylcarbonyl)piperazin-1-yl]azetidin-1-yl}carbonyl)-1H-indole] | 892 | 0.003 |  |  |
| Cc1oc(-c2ccccc2)cc1C(=O)N1CC(N2CCN(C(=O)c3nccs3)CC2)C1 [Cpd 1378] | 493 |  | 0.025 |  |
| O=C(c1nccs1)N1CCN(C2CN(C(=O)c3cc(-c4ccccc4)oc3C(F)(F)F)C2)CC1 [Cpd 1379] | 282 |  | 0.042 |  |
| O=C(c1nccs1)N1CCN(C2CN(C(=O)c3ccc(-c4ccccc4)cc3F)C2)CC1 [Cpd 1405, 1-{1-[(3-Fluorobiphenyl-4-yl)carbonyl]azetidin-3-yl}-4-(1,3-thiazol-2-ylcarbonyl)piperazine] | 197 | 0.002 |  |  |
